Measurements taken from patent US20040138193A1, “Oestrogen fatty acid monoester as a hypolipidaemic and antidiabetic agent” (priority 2001, published 2004).

Assays:
lean rats = assay: Lipoprotein separation by ultracentrifugation and lipid composition analysis, lean rats; format: in vivo, rat; conditions: 10 μmol/kg daily, vs controls
Description: Codes in bars are: triacylglycerols=white; phospholipids=lines; cholesterol=dots.
(§1) Lipoproteins in fresh plasma were fractionated by differential ultracentrifugation in known density media obtained through the addition of KBr. […] These fractions were used for the analysis of protein and lipidic components, and for the estimation of particle size.
(§2) Whole plasma, lipoprotein fractions and LPdp were used for the analysis of protein and lipid content. Total protein was estimated with the Bradford method (cf. M. M. Bradford, Anal. Biochem. 1976, vol. 72, pp. 248-254). Total cholesterol was measured in saline with a high-performance cholesterol kit. Triacylglycerol concentrations were measured with a commercial kit and the results were corrected for free glycerol. Phospholipid was quantified by a choline-based method. […] Recoveries for all plasma components (i.e. deviations from the values in whole plasma and those derived from the sum of its content in lipoprotein fractions) were lowest for triacylglycerols (88±3%) and highest for protein (92±3%). Sudan black-prestained serum samples were sepparated by polyacrylamide gel electrophoresis. Separation of lipoprotein classes through centrifugation allowed a detailed analysis of lipoprotein composition as shown in FIGS. 3 and 4.

obese rats = assay: Lipoprotein separation by ultracentrifugation and lipid composition analysis, obese rats; format: in vivo, rat; conditions: 10 μmol/kg daily, vs controls
Description: FIG. 4 is analogous to FIG. 3, but for obese rats.
as §1, §2

CCCCCCCC/C=C\CCCCCCCC(=O)Oc1ccc2c(c1)CC[C@@H]1[C@@H]2CC[C@]2(C)C(=O)CC[C@@H]12 [oleoyl-estrone]
change in lipoprotein composition (lean rats): little change | change of cholesterol in the HDL fraction (lean rats): decreased most | change of total phospholipid levels in lipoprotein-depleted plasma (lean rats): decrease | change of HDL components (obese rats): all components decreased again with treatment, except for triacylglycerols | change of LDL components (obese rats): only tricylglycerol levels decreased | change of chylomicra and VLDL components (obese rats): marked decreases | change of total phospholipid levels in lipoprotein-depleted plasma (obese rats): decrease | levels of all lipid classes in whole plasma (obese rats): markedly lower levels
